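Where inhibition never reached the appropriate level, the endpoint shown equals the highest concentration tested. Otherwise, values were interpolated linearly from a five-concentration, 48-hour dose response in 96-well plates. Here, GI50 denotes the concentration required for 50% inhibition of growth.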 Active and inactive are the calls of the source. Rule as the data show it: active = GI50 up to about 1.1 µM and inactive = higher.
Tests used:
Assay in all cases: NCI anticancer screen, dose series, 48 h
786-0 = test system: 786-0
COLO 205 = test system: COLO 205
OVCAR-5 = test system: OVCAR-5
HT-29 = test system: HT-29
MDA-MB-435 = test system: MDA-MB-435
NCI-H226 = test system: NCI-H226
MOLT-4 = test system: MOLT-4
SNB-75 = test system: SNB-75
HCT-116 = test system: HCT-116
EKVX = test system: EKVX
MCF7 = test system: MCF7
NCI-H522 = test system: NCI-H522
UACC-257 = test system: UACC-257
A549 = test system: A549
SK-OV-3 = test system: SK-OV-3
UO-31 = test system: UO-31
NCI-H460 = test system: NCI-H460
HCT-15 = test system: HCT-15
NCI-H23 = test system: NCI-H23
BT-549 = test system: BT-549

Structure (SMILES): CC(NNC(=O)c1cc[n+]([BH2-]C#N)cc1)c1ccc(Cl)c(Cl)c1 (stereo not given)
- GI50 (786-0): 47.5 µM (inactive)
- GI50 (COLO 205): 18.9 µM (inactive)
- GI50 (OVCAR-5): 41.3 µM (inactive)
- GI50 (HT-29): 17.5 µM (inactive)
- GI50 (MDA-MB-435): 34.8 µM (inactive)
- GI50 (NCI-H226): 22.4 µM (inactive)
- GI50 (MOLT-4): 25.9 µM (inactive)
- GI50 (SNB-75): 34.8 µM (inactive)
- GI50 (HCT-116): 32.1 µM (inactive)
- GI50 (EKVX): 30.1 µM (inactive)
- GI50 (MCF7): 26.9 µM (inactive)
- GI50 (NCI-H522): 21.3 µM (inactive)
- GI50 (UACC-257): 36.3 µM (inactive)
- GI50 (A549): 32.5 µM (inactive)
- GI50 (SK-OV-3): 27 µM (inactive)
- GI50 (UO-31): 30 µM (inactive)
- GI50 (NCI-H460): 27.2 µM (inactive)
- GI50 (HCT-15): 31.6 µM
- GI50 (NCI-H23): 20.7 µM (inactive)
- GI50 (BT-549): 27.9 µM (inactive)

Structure (SMILES): O=C1O[C@H]2[C@H](O)[C@@H](OC(=O)c3cc(O)c(O)c4c3[C@@H]3C1=CC(=O)C(O)(O)C3(O)O4)[C@H](OC(=O)c1cc(O)c(O)c(O)c1)O[C@@H]2CO (stereo not given in full) [FUROSIN]
- GI50 (786-0): > 100 µM (inactive)
- GI50 (COLO 205): 99.3 µM (inactive)
- GI50 (OVCAR-5): > 100 µM (inactive)
- GI50 (HT-29): 49.1 µM (inactive)
- GI50 (MDA-MB-435): 39.5 µM (inactive)
- GI50 (NCI-H226): > 100 µM (inactive)
- GI50 (MOLT-4): > 100 µM (inactive)
- GI50 (SNB-75): 78.9 µM (inactive)
- GI50 (HCT-116): 74.8 µM (inactive)
- GI50 (EKVX): > 100 µM (inactive)
- GI50 (MCF7): > 100 µM (inactive)
- GI50 (NCI-H522): 45.4 µM (inactive)
- GI50 (UACC-257): > 100 µM (inactive)
- GI50 (A549): 79.1 µM (inactive)
- GI50 (SK-OV-3): 86.5 µM (inactive)
- GI50 (UO-31): 57.1 µM (inactive)
- GI50 (NCI-H460): 64.1 µM (inactive)
- GI50 (HCT-15): 36.4 µM
- GI50 (NCI-H23): > 100 µM (inactive)
- GI50 (BT-549): > 100 µM (inactive)

Reference: ChEMBL document CHEMBL1201862, “PubChem BioAssay data set” (2004)
